# Tests used:
# [1] = species on record: Homo sapiens; assay: Ratio of IC50 for human CB1R F200L mutant to IC50 for human wild type CB1R
# [2] = species on record: Homo sapiens; assay: Ratio of IC50 for human CB1R K192L mutant to IC50 for human wild type CB1R
# [3] = species on record: Homo sapiens; assay: Ratio of IC50 for human CB1R S383A mutant to IC50 for human wild type CB1R
# [4] = species on record: Homo sapiens; assay: Ratio of IC50 for human CB1R W279A mutant to IC50 for human wild type CB1R
compound,measurement,setting,value
Cc1c(C(=O)NN2CCCCC2)nn(-c2ccc(Cl)cc2Cl)c1-c1ccc(Cl)cc1,Fold change,[1],3
same,Fold change,[2],17
same,Fold change,[3],< 2
same,Fold change,[4],> 1000
